Measured values: ChEMBL document CHEMBL6083277, “Discovery of SZJK-0421: A Novel Potent, Low Toxicity, Selective Second Generation of CRM1 Inhibitor for the Treatment of Both Hematological and Solid Tumors” (J Med Chem, 2024)

Experiments:
[1] = Toxicity in NOD-SCID mouse implanted with human HCT-116 cells assessed as body weight loss at 60 mg/kg, po measured every 2 days for 21 days; format: organism-based; details: in vivo, 504 h, time 21 day
[2] = Cmax in male Sprague-Dawley rat plasma at 10 mg/kg, IG measured at 6 hrs by LC-MS/MS analysis; format: ADME, organism-based; details: po
[3] = Half life in male Sprague-Dawley rat at 10 mg/kg, po measured upto 30 hrs by LC-MS/MS analysis; format: ADME, organism-based; details: in vivo
[4] = Toxicity in NOD-SCID mouse assessed as reduction in number of tumor cells at 60 mg/kg, po measured every 2 days for 21 days by H and E staining based analysis; format: organism-based; details: in vivo, 504 h, time 21 day
[5] = Oral bioavailability in male Sprague-Dawley rat at 15 mg/kg measured upto 30 hrs by LC-MS/MS analysis; format: ADME, organism-based; details: in vivo

For `CONC(=O)/C(=C/n1cnc(-c2cc(C(F)(F)F)cc(C(F)(F)F)c2)n1)c1cncnc1`, the Activity [1] was “Non-toxic”, the Cmax [2] was 0.0189 µg/mL and the half-life [3] was 5.6 h. The Activity [4] was “Non-toxic” and the bioavailability [5] was 52.1%.
